Test results reported in US10487045B2, “Adamantane derivative and use thereof” (TOHOKU UNIVERSITY, priority 2016, dated 2019).

System: APP23 mice
Test: Immunoblotting of hippocampus for phosphorylation of CaMKII, CaMKIV and ERK
Type: in vivo
Conditions: APP23 mice chronically treated, conditions as Test Example 4
Procedure: The hippocampus of APP23 mouse was excised out. To hippocampal slices, an SDS sample buffer was added to prepare a suspension, which was subjected to immunoblotting using antibodies against CaMKII, CaMKIV and ERK (CaMKII: Fukunaga et al., J. Biol. Chem. 1992, 267, 22527-22533, CaMKIV: Kasahara et al., J. Biol. Chem. 2001, 276, 24044-24050, ERK: manufactured by Sigma-Aldrich). In this manner, phosphorylation of the individual proteins was analyzed. CaMKII, CaMKIV and ERK are molecules all considered to play an important role in memory formation. As a result, it was observed that phosphorylation of CaMKII decreases in ordinary APP23 mice; whereas, in APP23 mice chronically treated with TP-014 (the treatment conditions are the same as in the case of Test Example 4), phosphorylation of CaMKII is accelerated.
GluA1 (Ser-831), Synapsin I (Ser-603) and CREB (Ser-133), which are molecules known to be activated if CaMKII is activated. These molecules were analyzed by immunoblotting of hippocampal slice sections suspended in an SDS sample buffer. Antibodies against the individual molecules were obtained from Millipore. It is shown that activation of GluA1 (Ser-831) and CREB (Ser-133) is induced by activation of CaMKII. FIG. 5a and FIG. 5c show bands (image) actually obtained by electrophoresis of immunoblots.

O=C(N[C@@H](c1ccccc1)[C@H]1[C@H]2C[C@@H]3C[C@](Cl)(C2)C[C@@]1(OC(=O)C(F)(F)F)C3)C(F)(F)F [TP-014, (1S,2R,3S,5S,7S)-5-chloro-2-((R)-phenyl(2,2,2-trifluoroacetamido)methyl)adamantan-1-yl 2,2,2-trifluoroacetate]
phosphorylation of CaMKII in hippocampus: accelerated
